Experimental data as given in ChEMBL document CHEMBL4261497, “Nucleotide pyrophosphatase/phosphodiesterase 1 (NPP1) and its inhibitors” (Medchemcomm, 2017).

Legend:
[1] = molecular target: T1, Ectonucleotide pyrophosphatase/phosphodiesterase family member 1 (Homo sapiens, UniProt P22413); assay: Noncompetitive-inhibition of recombinant human NPP1 expressed in HEK293 cell membranes using p-Nph-5'-TMP as substrate pretreated for 10 mins followed by substrate addition and measured after 60 mins by capillary electrophoresis method
T1 sequence (P22413 whole entry): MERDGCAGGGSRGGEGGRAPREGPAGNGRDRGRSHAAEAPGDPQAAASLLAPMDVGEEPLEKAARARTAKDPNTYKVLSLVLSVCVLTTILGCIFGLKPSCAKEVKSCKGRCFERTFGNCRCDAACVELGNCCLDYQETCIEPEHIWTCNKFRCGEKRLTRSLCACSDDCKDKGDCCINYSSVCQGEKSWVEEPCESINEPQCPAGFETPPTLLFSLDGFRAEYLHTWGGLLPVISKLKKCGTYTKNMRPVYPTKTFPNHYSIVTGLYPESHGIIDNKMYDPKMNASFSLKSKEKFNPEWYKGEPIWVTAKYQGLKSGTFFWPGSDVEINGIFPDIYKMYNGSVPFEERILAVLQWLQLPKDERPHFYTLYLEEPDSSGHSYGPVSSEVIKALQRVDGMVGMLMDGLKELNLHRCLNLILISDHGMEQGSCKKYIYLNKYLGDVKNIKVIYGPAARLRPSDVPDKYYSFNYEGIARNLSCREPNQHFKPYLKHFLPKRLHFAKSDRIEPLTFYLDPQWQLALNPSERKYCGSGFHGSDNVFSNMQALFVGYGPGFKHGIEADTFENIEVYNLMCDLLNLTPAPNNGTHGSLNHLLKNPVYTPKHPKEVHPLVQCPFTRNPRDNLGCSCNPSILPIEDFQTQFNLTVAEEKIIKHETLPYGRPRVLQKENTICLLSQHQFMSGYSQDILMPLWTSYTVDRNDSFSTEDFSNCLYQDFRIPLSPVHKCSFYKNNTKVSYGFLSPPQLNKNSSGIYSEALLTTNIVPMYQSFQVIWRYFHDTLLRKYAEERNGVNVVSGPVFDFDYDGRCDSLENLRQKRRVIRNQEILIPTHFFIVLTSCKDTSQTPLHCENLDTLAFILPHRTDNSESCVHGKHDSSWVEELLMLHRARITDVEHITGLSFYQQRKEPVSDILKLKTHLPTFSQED

[2] = molecular target: T1, Ectonucleotide pyrophosphatase/phosphodiesterase family member 1; assay: Inhibition of recombinant human NPP1 expressed in COS7 cell membranes using p-Nph-5'-TMP as substrate pretreated for 10 mins followed by substrate addition and measured after 30 mins
[3] = molecular target: T1, Ectonucleotide pyrophosphatase/phosphodiesterase family member 1; assay: Competitive-inhibition of recombinant human N-terminal His-tagged soluble NPP1 (Val191 to Leu591 residues) expressed in mouse NSO cells using ATP as substrate after 30 mins by capillary electrophoresis method
[4] = molecular target: T2, Ectonucleotide pyrophosphatase/phosphodiesterase family member 1 (Rattus norvegicus, UniProt Q924C3); assay: Competitive-inhibition of Wistar rat NPP1 using p-Nph-5'-TMP as substrate measured after 5 mins by UPLC method
T2 sequence (Q924C3 whole entry): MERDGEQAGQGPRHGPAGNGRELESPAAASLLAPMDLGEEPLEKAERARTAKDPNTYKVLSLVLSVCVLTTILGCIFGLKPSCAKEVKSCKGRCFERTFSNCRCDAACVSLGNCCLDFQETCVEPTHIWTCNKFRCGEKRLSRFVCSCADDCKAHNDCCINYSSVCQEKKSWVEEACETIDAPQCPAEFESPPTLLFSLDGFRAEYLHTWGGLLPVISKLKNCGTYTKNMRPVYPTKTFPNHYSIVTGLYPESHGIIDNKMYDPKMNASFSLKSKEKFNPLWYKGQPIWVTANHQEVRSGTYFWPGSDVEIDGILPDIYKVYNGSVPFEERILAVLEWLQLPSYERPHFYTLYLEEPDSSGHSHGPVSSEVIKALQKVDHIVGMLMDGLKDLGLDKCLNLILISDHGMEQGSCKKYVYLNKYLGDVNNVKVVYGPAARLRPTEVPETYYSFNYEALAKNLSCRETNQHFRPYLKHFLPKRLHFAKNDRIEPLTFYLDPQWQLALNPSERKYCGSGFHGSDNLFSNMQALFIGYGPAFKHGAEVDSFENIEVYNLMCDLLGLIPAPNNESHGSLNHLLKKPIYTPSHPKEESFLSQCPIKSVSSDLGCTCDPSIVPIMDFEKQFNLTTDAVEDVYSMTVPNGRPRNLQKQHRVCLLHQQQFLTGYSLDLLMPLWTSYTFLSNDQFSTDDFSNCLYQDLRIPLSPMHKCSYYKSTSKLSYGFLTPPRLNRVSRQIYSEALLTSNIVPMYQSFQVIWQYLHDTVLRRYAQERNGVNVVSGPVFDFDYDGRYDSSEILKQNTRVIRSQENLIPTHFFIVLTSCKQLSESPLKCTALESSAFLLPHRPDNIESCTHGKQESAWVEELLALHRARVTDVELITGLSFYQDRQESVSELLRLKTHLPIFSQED

[5] = molecular target: T1, Ectonucleotide pyrophosphatase/phosphodiesterase family member 1; assay: Competitive-inhibition of recombinant human NPP1 expressed in HEK293 cell membranes using p-Nph-5'-TMP as substrate pretreated for 10 mins followed by substrate addition and measured after 60 mins by capillary electrophoresis method
[6] = molecular target: T1, Ectonucleotide pyrophosphatase/phosphodiesterase family member 1; assay: Inhibition of recombinant human NPP1 expressed in COS7 cell membranes using p-Nph-5'-TMP as substrate pretreated for 10 mins followed by substrate addition and measured after 30 mins by spectrophotometric method
[7] = molecular target: T2, Ectonucleotide pyrophosphatase/phosphodiesterase family member 1; assay: Mixed-inhibition of Wistar rat NPP1 using p-Nph-5'-TMP as substrate measured after 5 mins by UPLC method
[8] = molecular target: T2, Ectonucleotide pyrophosphatase/phosphodiesterase family member 1; assay: Inhibition of NPP1 in Wistar rat C6 cells using [gamma-32P]ATP as substrate pretreated for 30 mins followed by substrate addition and measured after 90 mins by TLC analysis; type: cell-based
[9] = molecular target: T1, Ectonucleotide pyrophosphatase/phosphodiesterase family member 1; assay: Uncompetitive-inhibition of recombinant human N-terminal His-tagged soluble NPP1 (Val191 to Leu591 residues) expressed in mouse NSO cells using p-Nph-5'-AMP as substrate after 30 mins by capillary electrophoresis method
[10] = molecular target: T1, Ectonucleotide pyrophosphatase/phosphodiesterase family member 1; assay: Uncompetitive-inhibition of recombinant human N-terminal His-tagged soluble NPP1 (Val191 to Leu591 residues) expressed in mouse NSO cells using p-Nph-5'-TMP as substrate after 15 mins by capillary electrophoresis method
[11] = molecular target: T1, Ectonucleotide pyrophosphatase/phosphodiesterase family member 1; assay: Uncompetitive-inhibition of recombinant human N-terminal His-tagged soluble NPP1 (Val191 to Leu591 residues) expressed in mouse NSO cells using ATP as substrate by capillary electrophoresis method
[12] = molecular target: T1, Ectonucleotide pyrophosphatase/phosphodiesterase family member 1; assay: Uncompetitive-inhibition of recombinant human N-terminal His-tagged soluble NPP1 (Val191 to Leu591 residues) expressed in mouse NSO cells using ATP as substrate after 30 mins by capillary electrophoresis method

Nc1ncnc2c1ncn2[C@@H](C=O)O[C@@H](C=O)COP(=O)(O)OP(=O)(O)O
Ki [1]: 3.42 µM

CCC(Oc1ccc(C)cc1)c1nnc(SCC(=O)Nc2nc3ccccc3s2)o1 (centres undefined)
IC50 [2]: 1.9 to 5.5 µM

CSc1nc(N)c2ncn([C@@H]3O[C@H](COP(=O)(O)OP(=O)(O)O)[C@@H](O)[C@H]3O)c2n1
Ki [3]: 23.7 µM

CSc1nc(N)c2ncn([C@@H]3O[C@H](COP(=O)(O)OP(=O)(O)OP(=O)(O)O)[C@@H](O)[C@H]3O)c2n1
Ki [4]: 20.5 µM | Ki [3]: 21.3 µM

Nc1ncnc2c1ncn2[C@@H]1O[C@H](COP(=O)(O)OP(=O)(O)OP(=O)(O)O)[C@@H](OC(=O)c2ccc(C(=O)c3ccccc3)cc2)[C@H]1O
Ki [5]: 2.96 µM | Ki [4]: 20.5 µM | Ki [3]: 14.6 µM

COc1cc2cc(-n3cc(C)c4ccccc43)n3c4ccccc4c(C)c3c2cc1OC
IC50 [6]: 0.36 to 2.81 µM

Nc1ncnc2c1ncn2[C@@H]1O[C@H](COP(=O)(O)CP(=O)(O)OP(=O)(O)O)[C@@H](O)[C@H]1O [DIPHOSPHOMETHYLPHOSPHONIC ACID ADENOSYL ESTER]
Ki [4]: 2.2 µM

Nc1ncnc2c1ncn2[C@@H]1O[C@H](COP(=O)(O)CP(=O)(O)O)[C@@H](O)[C@H]1O [PHOSPHOMETHYLPHOSPHONIC ACID ADENOSYL ESTER]
Ki [3]: 24.3 µM | Ki [7]: 9.6 µM

Cc1nc(/N=N/c2ccc(S(=O)(=O)O)cc2S(=O)(=O)O)c(COP(=O)(O)O)c(C=O)c1O
IC50 [8]: 12 µM

Nc1ncnc2c1ncn2[C@@H](C=O)O[C@@H](C=O)COP(=O)(O)OP(=O)(O)OP(=O)(O)O
Ki [9]: 5.08 µM | Ki [10]: 4.09 µM | Ki [11]: 6.82 µM | Ki [4]: 9.8 µM | Ki [12]: 6.96 µM

Cc1ccc(C(=O)Nc2ccc(S(=O)(=O)O)c3cc(S(=O)(=O)O)cc(S(=O)(=O)O)c23)cc1NC(=O)c1cccc(NC(=O)Nc2cccc(C(=O)Nc3cc(C(=O)Nc4ccc(S(=O)(=O)O)c5cc(S(=O)(=O)O)cc(S(=O)(=O)O)c45)ccc3C)c2)c1 [SURAMIN]
IC50 [8]: 72 µM
